Assay [1] has as its target T1, Androgen receptor (Homo sapiens, UniProt P10275).
T1 sequence (P10275 whole entry): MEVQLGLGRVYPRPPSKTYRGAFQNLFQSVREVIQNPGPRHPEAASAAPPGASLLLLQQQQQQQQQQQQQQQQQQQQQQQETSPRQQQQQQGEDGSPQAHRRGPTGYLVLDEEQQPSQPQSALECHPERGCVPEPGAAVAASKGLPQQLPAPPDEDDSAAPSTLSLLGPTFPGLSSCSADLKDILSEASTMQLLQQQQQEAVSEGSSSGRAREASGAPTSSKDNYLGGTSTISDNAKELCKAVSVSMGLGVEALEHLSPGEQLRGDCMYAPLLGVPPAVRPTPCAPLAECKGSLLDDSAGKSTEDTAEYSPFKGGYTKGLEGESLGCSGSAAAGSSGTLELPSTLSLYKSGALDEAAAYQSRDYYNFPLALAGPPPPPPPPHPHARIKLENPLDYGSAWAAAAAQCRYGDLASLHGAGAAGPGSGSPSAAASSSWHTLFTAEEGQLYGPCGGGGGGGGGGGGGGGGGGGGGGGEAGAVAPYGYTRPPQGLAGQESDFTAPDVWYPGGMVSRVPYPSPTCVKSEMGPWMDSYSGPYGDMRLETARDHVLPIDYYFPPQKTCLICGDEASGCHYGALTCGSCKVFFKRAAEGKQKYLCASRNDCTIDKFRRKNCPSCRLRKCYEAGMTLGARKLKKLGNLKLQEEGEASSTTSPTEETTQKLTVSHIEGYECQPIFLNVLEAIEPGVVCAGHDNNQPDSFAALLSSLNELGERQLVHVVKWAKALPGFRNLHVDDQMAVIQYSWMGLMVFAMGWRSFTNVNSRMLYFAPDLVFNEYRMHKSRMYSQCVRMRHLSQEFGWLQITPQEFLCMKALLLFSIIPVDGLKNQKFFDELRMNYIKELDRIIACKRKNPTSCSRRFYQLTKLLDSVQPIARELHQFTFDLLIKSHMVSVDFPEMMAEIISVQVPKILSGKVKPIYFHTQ
As to the kind of experiment: biochemical.
Description: Displacement of [3H]DHT from human AR in MDA453 cells

For assay [2], the target named is T2, Androgen receptor (Rattus norvegicus, UniProt P15207).
T2 sequence (P15207 whole entry): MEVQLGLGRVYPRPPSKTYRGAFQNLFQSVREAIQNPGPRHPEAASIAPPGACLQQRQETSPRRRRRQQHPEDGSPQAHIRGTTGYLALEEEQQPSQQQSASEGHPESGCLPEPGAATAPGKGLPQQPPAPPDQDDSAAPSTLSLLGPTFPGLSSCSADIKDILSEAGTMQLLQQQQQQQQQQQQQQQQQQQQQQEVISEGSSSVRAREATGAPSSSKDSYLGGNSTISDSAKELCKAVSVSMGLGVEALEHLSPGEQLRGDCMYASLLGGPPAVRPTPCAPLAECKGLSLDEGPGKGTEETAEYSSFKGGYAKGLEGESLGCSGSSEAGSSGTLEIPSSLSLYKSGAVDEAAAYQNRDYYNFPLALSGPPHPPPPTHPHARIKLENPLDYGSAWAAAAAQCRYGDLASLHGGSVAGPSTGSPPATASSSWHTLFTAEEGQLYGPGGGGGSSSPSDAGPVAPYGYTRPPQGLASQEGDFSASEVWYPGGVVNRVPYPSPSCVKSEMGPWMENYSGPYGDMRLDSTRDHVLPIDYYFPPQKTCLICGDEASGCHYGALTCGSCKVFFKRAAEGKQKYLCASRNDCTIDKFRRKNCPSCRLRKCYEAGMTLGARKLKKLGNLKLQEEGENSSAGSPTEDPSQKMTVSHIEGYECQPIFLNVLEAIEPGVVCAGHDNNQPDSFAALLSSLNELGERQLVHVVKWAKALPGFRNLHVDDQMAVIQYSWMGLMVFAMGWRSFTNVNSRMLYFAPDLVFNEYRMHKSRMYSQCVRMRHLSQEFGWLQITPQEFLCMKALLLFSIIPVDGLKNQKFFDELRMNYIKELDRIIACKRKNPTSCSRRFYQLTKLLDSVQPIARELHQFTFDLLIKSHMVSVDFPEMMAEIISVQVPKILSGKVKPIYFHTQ
Description: Agonist activity at rat AR transfected in mouse C2C12 cells by luciferase reporter transactivation assay

Assay [3] concerns the target T2, Androgen receptor. As to the kind of experiment: Antagonist activity against rat AR transfected in mouse C2C12 cells by luciferase reporter transactivation assay relative to DHT. It counts as functional, cell-based.
For assay [4], the system named is Rattus norvegicus. As to the kind of experiment: Stimulation of prostate growth in orally dosed castrated Sprague-Dawley rat. It counts as functional. The following applies: Prostate gland, po.
Assay [5] concerns Rattus norvegicus. As to the kind of experiment: Stimulation of levator ani muscle growth in orally dosed castrated Sprague-Dawley rat. It counts as functional. To be noted: po.
The subject of assay [6] is Rattus norvegicus. As to the kind of experiment: Inhibition of LH secretion in orally dosed castrated Sprague-Dawley rat. In kind it is functional. The following applies: po.
Assay [7] concerns Rattus norvegicus. As to the kind of experiment: Selectivity for stimulation of levator ani muscle over prostate in sc dosed castrated Sprague-Dawley rat. In kind it is functional.
In assay [8] the test system is Rattus norvegicus. As to the kind of experiment: Inhibition of LH secretion in sc dosed castrated Sprague-Dawley rat. It counts as functional, organism-based.
The test system of assay [9] is Rattus norvegicus. As to the kind of experiment: Stimulation of levator ani muscle growth in sc dosed castrated Sprague-Dawley rat. In kind it is functional.
In assay [10] the test system is Rattus norvegicus. As to the kind of experiment: Stimulation of prostate growth in sc dosed castrated Sprague-Dawley rat. The following applies: Prostate gland. It counts as functional.
Assay [11] has as its system Rattus norvegicus. As to the kind of experiment: Selectivity for stimulation of levetor ani muscle over suppression of LH secretion in sc dosed castrated Sprague-Dawley rat. In kind it is functional, Muscle tissue.

One may read the Ki as the dissociation constant of the complex between target and ligand, obtained from inhibition or displacement. The low end stands for higher affinity, the high end for lower affinity. As a reminder, the IC50 is the concentration at which inhibition is half-maximal. A lower IC50 goes with inhibition by little substance. For the compound `N#Cc1ccc(N2C(=O)[C@H]3[C@@H]4CC[C@@H](C4)N3C2=O)c2ccccc12`, the affinity at Androgen receptor [1] corresponds to a Ki of 24 nM. At Androgen receptor [2], this compound showed an EC50 greater than 1000 nM. This compound also showed an IC50 at Androgen receptor [3] of 260 nM.
Take `N#Cc1ccc(N2C(=O)C3C(O)CCN3C2=O)c2ccccc12` (racemic): on Androgen receptor [2], the EC50 worked out at 6.3 nM.
Consider `O=C1[C@H]2C[C@H](O)CN2C(=O)N1c1ccc([N+](=O)[O-])c2ccccc12`, for which the Ki on Androgen receptor [1] was found to be 4.3 nM. The compound further came in with an EC50 at Androgen receptor [2] of 265 nM.
Turning to `O=C1C2C(O)CCN2C(=O)N1c1ccc([N+](=O)[O-])c2ccccc12` (racemic), affinity on Androgen receptor [1] was put at a Ki of 3.5 nM. The compound also registered an EC50 at Androgen receptor [2] of 4.4 nM.
In turn, `O=C1[C@H]2C[C@@H](O)CN2C(=O)N1c1ccc([N+](=O)[O-])c2ccccc12` showed a Ki on Androgen receptor [1] of 1.5 nM. The EC50 at Androgen receptor [2] was 320 nM.
Broadly, the ED50 is the dose that gives a 50% effect, or the effect in half of the subjects. Turning to `N#Cc1ccc(N2C(=O)[C@@H]3[C@H](O)CCN3C2=O)c2ccccc12`, the EC50 at Androgen receptor [2] came out at 2.3 nM. Also, the ED50 was greater than 100 mg/kg in the assay on Rattus norvegicus [4], 2 mg/kg in the assay on Rattus norvegicus [5] and 60 mg/kg with Rattus norvegicus [6].
In turn, `O=C1[C@@H]2[C@H](O)CCN2C(=O)N1c1ccc([N+](=O)[O-])c2ccccc12` had an inhibition constant Ki on Androgen receptor [1] of 2.1 nM. Besides, the EC50 at Androgen receptor [2] turned out to be 1.5 nM.
The like results for `O=C1[C@@H]2[C@H](O)CCN2C(=O)N1c1ccc([N+](=O)[O-])c2ccccc12` (single isomer, unassigned) were, in that order, 1.5 nM and 281 nM.
`CCC(=O)O[C@H]1CC[C@H]2[C@@H]3CCC4=CC(=O)CC[C@]4(C)[C@H]3CC[C@]12C` [TESTOSTERONE PROPIONATE]: the “Ratio ED50” value in the assay with Rattus norvegicus [7] is 2; in the assay on Rattus norvegicus [11], 1.2. For the same compound, in the assay on Rattus norvegicus [8], the EC50 worked out at 0.26 mg/kg. Further, the ED50 came out at 0.21 mg/kg in the assay with Rattus norvegicus [9] and 0.42 mg/kg in the assay with Rattus norvegicus [10].
Consider `O=C1C2CCCN2C(=O)N1c1ccc([N+](=O)[O-])c2ccccc12` (centres undefined), for which, on Androgen receptor [1], the Ki was determined as 1.7 nM. The same compound returned an EC50 at Androgen receptor [2] of 270 nM.
For `N#Cc1ccc(N2C(=O)[C@@H]3[C@H](O)CCN3C2=O)c2ccccc12` (single isomer, unassigned), the EC50 on Androgen receptor [2] was found to be 1300 nM. The IC50 against Androgen receptor [3] was found to be 60 nM.
With `O=C1[C@H]2[C@@H]3CC[C@@H](C3)N2C(=O)N1c1ccc([N+](=O)[O-])c2ccccc12`, the affinity at Androgen receptor [1] corresponds to a Ki of 1 nM. Besides, at Androgen receptor [2], the EC50 was determined as 385 nM.

The record behind these values is ChEMBL document CHEMBL1138210, “Discovery of potent, orally-active, and muscle-selective androgen receptor modulators based on an N-aryl-hydroxybicyclohydantoin scaffold” (J Med Chem, 2006).
